From patent publication US12385055B2, “Compositions and methods for production of salidroside, icariside D2, and precursors of salidroside and icariside D2” (Whitehead Institute for Biomedical Research, priority 2017, dated 2025) come the findings set out here.

The nature of series [1]: Phenylacetaldehyde reductase activity assay. It is filed as biochemical. The note with it: NADPH as co-substrate. How it is done: FIG. 15 is a chromatogram showing the enzymatic reduction of phenylacetaldehyde to phenylethyl alcohol by Rr4HPAR1 and Rr4HPAR2. Chromatogram of positive ion mode metabolites between 50 and 300 m/z show the depletion of phenylacetaldehyde and production of phenylethyl alcohol when exposed to NADPH and Rr4HPAR1 or RrPAR2. Reactions were carried out in 200 μL 50 mM Tris, pH 8.0 in the presence of 2 mM phenylacetaldehyde, 5 mM NADPH and 50 μg of recombinant enzyme. The reactions were incubated at 30° C. for 25 minutes prior to quenching with 200 μL of 0.8 M formic acid, extracted with 100 μL of ethyl acetate and analyzed by gas chromatography-mass spectrometry. Phenylethyl alcohol was verified by comparison to an authentic standard.
The phenylacetaldehyde reductase activity assays using Rr4HPAR1 and RrPAR2 were carried out in 200 μL reaction buffer (50 mM Tris, pH 8.0) at the presence of 2 mM phenylacetaldehyde, 5 mM NADPH and 5 μg of recombinant enzyme. […] The organic phase was then analyzed by gas chromatography-mass spectrometry (GC-MS) using an 5% Phenyl Methyl Silox column (30 m×250 m×0.25 m, Agilent) with a temperature gradient as follows: 0-1 min 45° C., 4-13.33 min 45-185° C. […] The reaction mixture was then centrifuged and analyzed by LC-MS. […] Product formation was measured using select ion monitoring in positive mode for a centroid center mass of 121.065 with a scan width of 0.002. […]

The nature of series [2]: 4-HPAA reductase activity assay. The class given is biochemical. The note with it: 5 mM 4-HPAA, 10 mM NADPH, five-minute time point. How it is done: The phenylacetaldehyde reductase activity assays using Rr4HPAR1 and RrPAR2 were carried out in 200 μL reaction buffer (50 mM Tris, pH 8.0) at the presence of 2 mM phenylacetaldehyde, 5 mM NADPH and 5 μg of recombinant enzyme. The reactions were incubated at 30° C. for various time points, quenched with an equal volume of 0.8 M formic acid, and extracted by 100 μL of ethyl acetate. The organic phase was then analyzed by gas chromatography-mass spectrometry (GC-MS) using an 5% Phenyl Methyl Silox column (30 m×250 m×0.25 m, Agilent) with a temperature gradient as follows: 0-1 min 45° C., 4-13.33 min 45-185° C. The quadrupole MS was set to EI mode, electron energy at 70 eV, MS-source temperature at 230° C., MS-quad temperature at 150° C., scan mass range at 50-300 m/z and SIM for 120 m/z and 122 m/z. EI-MS spectra were compared against analytical standards. The 4-HPAA reductase activity assays were carried out in 100 μL of 50 mM Tris pH 8.0 with the addition of 5 mM 4-HPAA, 10 mM NADPH and 0.2 μg of Rr4HPAR1 or […] of Rr4HPAR2. […] The reaction mixture was then centrifuged and analyzed by LC-MS. […] Product formation was measured using select ion monitoring in positive mode for a centroid center mass of 121.065 with a scan width of 0.002. The specific activity was determined at a five-minute reaction time point, and quantified against a standard curve of tyrosol.

With “Rr4HPAR1: R. rosea 4-hydroxyphenylacetaldehyde reductase, reduces 4-HPAA to tyrosol”, in series [1], the “reduction of phenylacetaldehyde to phenylethanol” value was “higher activity”. In addition, the “specific activity towards 4-HPAA” value in series [2] turned out to be 6.9 µmol/min/mg.
